From publication PMC5773580, “A synthetic combinatorial approach to disabling deviant Hedgehog signaling” (Scientific Reports, 2018)
Values joined by “and” are separate entries in the source; they are usually repeats but may differ in a detail not shown here. Equal entries are not always repeated.

What was measured:
HDAC6 = biological target: T1, HDAC6 (Homo sapiens, UniProt Q9UBN7); experiment: In vitro HDAC profiling (deacetylation assay), HDAC6; assay type: biochemical; conditions: for HDAC Activity (Fluorescent counts): Repeat1/Repeat 2
T1 construct: purchased BPS Bioscience #50051-11
T1 sequence (Q9UBN7 1-1215): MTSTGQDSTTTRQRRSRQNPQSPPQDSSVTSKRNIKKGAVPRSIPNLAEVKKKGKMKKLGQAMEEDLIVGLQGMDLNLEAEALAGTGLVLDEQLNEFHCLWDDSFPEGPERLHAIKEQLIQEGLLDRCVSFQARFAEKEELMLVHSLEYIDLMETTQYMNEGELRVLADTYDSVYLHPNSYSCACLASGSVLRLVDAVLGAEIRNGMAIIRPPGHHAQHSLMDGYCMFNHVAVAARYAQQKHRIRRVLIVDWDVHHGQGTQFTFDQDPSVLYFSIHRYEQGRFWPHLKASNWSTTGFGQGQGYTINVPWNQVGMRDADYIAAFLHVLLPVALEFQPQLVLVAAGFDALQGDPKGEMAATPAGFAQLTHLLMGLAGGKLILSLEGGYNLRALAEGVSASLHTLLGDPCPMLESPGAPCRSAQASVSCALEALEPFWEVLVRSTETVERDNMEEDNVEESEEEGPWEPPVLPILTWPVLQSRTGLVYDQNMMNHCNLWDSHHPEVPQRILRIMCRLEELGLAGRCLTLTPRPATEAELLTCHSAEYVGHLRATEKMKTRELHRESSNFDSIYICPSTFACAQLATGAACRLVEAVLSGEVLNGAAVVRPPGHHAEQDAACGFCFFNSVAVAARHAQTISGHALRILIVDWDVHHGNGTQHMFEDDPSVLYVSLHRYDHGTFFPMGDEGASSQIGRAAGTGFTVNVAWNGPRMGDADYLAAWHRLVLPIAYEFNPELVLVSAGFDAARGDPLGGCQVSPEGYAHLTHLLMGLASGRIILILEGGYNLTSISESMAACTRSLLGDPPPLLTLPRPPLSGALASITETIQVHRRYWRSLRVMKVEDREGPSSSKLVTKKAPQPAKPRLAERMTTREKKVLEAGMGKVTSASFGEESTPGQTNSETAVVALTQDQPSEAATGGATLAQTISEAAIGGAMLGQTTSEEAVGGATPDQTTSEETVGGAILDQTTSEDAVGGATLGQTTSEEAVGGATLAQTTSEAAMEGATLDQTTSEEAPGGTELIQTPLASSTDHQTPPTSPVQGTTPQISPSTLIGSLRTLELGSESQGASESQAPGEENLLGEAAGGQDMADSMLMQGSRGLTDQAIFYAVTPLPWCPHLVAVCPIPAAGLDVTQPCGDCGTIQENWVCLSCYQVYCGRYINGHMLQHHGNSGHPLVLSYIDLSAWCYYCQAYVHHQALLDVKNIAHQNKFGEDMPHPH
Protocol: (§1) HDAC profiling was performed at BPS Bioscience (San Diego, CA). All of the compounds are dissolved in DMSO. A series of dilutions of the compounds were prepared with 10% DMSO in HDAC assay buffer (#50031) and 5 µl of the dilution was added to a 50 µl reaction so that the final concentration of DMSO is 1% in all of reactions. All of the enzymatic reactions were conducted in duplicate at 37 °C for 30 mins, except that the enzyme reactions for HDAC11 were at room temperature for 3 hrs. All of the reactions were performed in a 50 µl mixture containing HDAC assay buffer, 5 µg BSA, an HDAC substrate [HDAC Substrate 3 (BPS number 50037) or HDAC Class 2a Substrate 1 (BPS number 50040)], an HDAC enzyme (#50051-11) and a test compound. After enzymatic reactions, 50 μl of HDAC Developer (#50030) was added to each well and the plate was incubated at room temperature for an additional 20 mins. Fluorescence intensity was measured at an excitation of 360 nm and an emission of 460 nm using a Tecan Infinite M1000 microplate reader. HDAC activity assays were performed in duplicates at each concentration. The fluorescent intensity data were analyzed using the computer software, Graphpad Prism. In the absence of the compound, the fluorescent intensity (Ft) in each data set was defined as 100% activity. In the absence of HDAC, the fluorescent intensity (Fb) in each data set was defined as 0% activity. The percent activity in the presence of each compound was calculated according to the following equation: %activity = (F − Fb)/(Ft − Fb), where F = the fluorescent intensity in the presence of the compound. The values of % activity versus a series of compound concentrations were then plotted using non-linear regression analysis of Sigmoidal dose-response curve generated with the equation Y = B + (T − B)/1 + 10((LogIC50 − X) × Hill Slope), where Y = percent activity, B = minimum percent activity, T = maximum percent activity, X = logarithm of compound and Hill Slope = slope factor or Hill coefficient. The IC50 value was determined by the concentration causing a half-maximal percent activity.

HDAC1 = biological target: T2, HDAC1 (Homo sapiens, UniProt Q13547); experiment: In vitro HDAC profiling (deacetylation assay), HDAC1; assay type: biochemical; conditions: for HDAC Activity (Fluorescent counts): Repeat1/Repeat 2
T2 construct: purchased BPS Bioscience #50051-11
T2 sequence (Q13547 whole entry): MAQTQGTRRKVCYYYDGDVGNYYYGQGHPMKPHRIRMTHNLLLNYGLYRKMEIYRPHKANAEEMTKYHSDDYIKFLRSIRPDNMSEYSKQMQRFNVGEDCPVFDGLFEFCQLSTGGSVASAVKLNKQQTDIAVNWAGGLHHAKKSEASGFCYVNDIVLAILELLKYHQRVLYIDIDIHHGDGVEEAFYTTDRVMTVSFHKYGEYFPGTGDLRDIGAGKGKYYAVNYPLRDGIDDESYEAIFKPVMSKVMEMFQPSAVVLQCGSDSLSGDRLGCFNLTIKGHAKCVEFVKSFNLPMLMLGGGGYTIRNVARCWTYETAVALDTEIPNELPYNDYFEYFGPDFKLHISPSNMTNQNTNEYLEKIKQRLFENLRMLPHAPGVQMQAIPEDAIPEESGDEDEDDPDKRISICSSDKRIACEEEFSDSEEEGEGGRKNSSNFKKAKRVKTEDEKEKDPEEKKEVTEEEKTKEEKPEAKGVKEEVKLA
Protocol: as §1

[1] = tested on: HDAC activity (acetylated tubulin) in NIH-3T3 cells; experiment: Acetylation assay, Western blot of acetylated tubulin; assay type: cell-based; conditions: 48hrs
Protocol: For analyzing acetylation status of histone 3 and tubulin, NIH3T3 cells were grown to confluence in 6-well plates. After 48hrs of treatment with indicated chemicals, cells were lysed in RIPA buffer or 1% NP40/phosphate buffered saline/protease inhibitors (SIGMA, #S8820), the lysate cleared using a microcentrifuge, then 6 × sample loading buffer (Bioland Scientific) added to the supernatant. Proteins were separated on SDS-PAGE (BioRad Criterion TGX Precast Gels). Antibodies used for analyzing the blots were: acetylated tubulin (SIGMA, #T6793), tubulin, acetyl-histone H3 (Lys23), and histone H3 (Cell Signaling Technology, #2125 S, #8848 and #9717, respectively). Chemiluminescence was detected using a Li-COR Odyssey Imaging System.

[2] = in vitro deacetylation assay, duplicates

- IC50 (HDAC6; [2]): 47 nM
- IC50 (HDAC1; [2]): 285 nM
SMILES: O=C(CCCCCCC(=O)Nc1ccc(Cl)c(C(=O)Nc2ccc(NC(=O)c3cc(Cl)ccc3Cl)cc2)c1)NO [IHR-SAHA]
- HDAC Activity (Fluorescent counts) (HDAC6; HDAC6, WW01 0 Log nM): 17916 Fluorescent counts and 17639 Fluorescent counts
- HDAC Activity (Fluorescent counts) (HDAC6; HDAC6, WW01 0.5 Log nM): 16713 Fluorescent counts and 17763 Fluorescent counts
- HDAC Activity (Fluorescent counts) (HDAC6; HDAC6, WW01 1 Log nM): 14605 Fluorescent counts and 14491 Fluorescent counts
- HDAC Activity (Fluorescent counts) (HDAC6; HDAC6, WW01 1.5 Log nM): 11120 Fluorescent counts and 11971 Fluorescent counts
- HDAC Activity (Fluorescent counts) (HDAC6; HDAC6, WW01 2 Log nM): 7800 Fluorescent counts and 7793 Fluorescent counts
- HDAC Activity (Fluorescent counts) (HDAC6; HDAC6, WW01 2.5 Log nM): 5185 Fluorescent counts and 5345 Fluorescent counts
- HDAC Activity (Fluorescent counts) (HDAC6; HDAC6, WW01 3 Log nM): 4209 Fluorescent counts and 4174 Fluorescent counts
- HDAC Activity (Fluorescent counts) (HDAC6; HDAC6, WW01 3.5 Log nM): 3548 Fluorescent counts and 3756 Fluorescent counts
- HDAC Activity (Fluorescent counts) (HDAC6; HDAC6, WW01 4 Log nM): 3616 Fluorescent counts and 3660 Fluorescent counts
- HDAC Activity (Fluorescent counts) (HDAC6; HDAC6, WW01 -0.5 Log nM): 18352 Fluorescent counts and 17865 Fluorescent counts
- HDAC Activity (Fluorescent counts) (HDAC1; HDAC1, WW01 0 Log nM): 31058 Fluorescent counts and 32831 Fluorescent counts
- HDAC Activity (Fluorescent counts) (HDAC1; HDAC1, WW01 0.5 Log nM): 31900 Fluorescent counts and 30926 Fluorescent counts
- HDAC Activity (Fluorescent counts) (HDAC1; HDAC1, WW01 1 Log nM): 29505 Fluorescent counts and 28223 Fluorescent counts
- HDAC Activity (Fluorescent counts) (HDAC1; HDAC1, WW01 1.5 Log nM): 27089 Fluorescent counts and 26820 Fluorescent counts
- HDAC Activity (Fluorescent counts) (HDAC1; HDAC1, WW01 2 Log nM): 21883 Fluorescent counts and 21225 Fluorescent counts
- HDAC Activity (Fluorescent counts) (HDAC1; HDAC1, WW01 2.5 Log nM): 19997 Fluorescent counts and 14409 Fluorescent counts
- HDAC Activity (Fluorescent counts) (HDAC1; HDAC1, WW01 3 Log nM): 9008 Fluorescent counts and 8923 Fluorescent counts
- HDAC Activity (Fluorescent counts) (HDAC1; HDAC1, WW01 3.5 Log nM): 7360 Fluorescent counts and 7292 Fluorescent counts
- HDAC Activity (Fluorescent counts) (HDAC1; HDAC1, WW01 4 Log nM): 6195 Fluorescent counts and 6043 Fluorescent counts
- HDAC Activity (Fluorescent counts) (HDAC1; HDAC1, WW01 -0.5 Log nM): 31660 Fluorescent counts and 32681 Fluorescent counts
- HDAC inhibitory activity, acetylated tubulin accumulation (ratio to total tubulin), compared with SAHA [1]: increase in anti-HDAC activity
